# Test results published in patent US11306064B2, “Benzothia(di)azepine compounds and their use as bile acid modulators” (Albireo AB, priority 2018, dated 2022).
# Assays:
# Assay type in all cases: cell-based
# Human LBAT = target: T1, Human LBAT (Homo sapiens, UniProt Q14973); assay: LBAT (h/m) assay: 3H-taurocholic acid uptake in human LBAT-overexpressing cells; conditions: 0.3 μM 3H-taurocholic acid and 7.5 μM cold taurocholic acid, 20 minutes, read-out: hLBAT IC50
# T1 construct: expressed in transfected cells; kept under Geneticin selection
# T1 sequence (Q14973 1-349): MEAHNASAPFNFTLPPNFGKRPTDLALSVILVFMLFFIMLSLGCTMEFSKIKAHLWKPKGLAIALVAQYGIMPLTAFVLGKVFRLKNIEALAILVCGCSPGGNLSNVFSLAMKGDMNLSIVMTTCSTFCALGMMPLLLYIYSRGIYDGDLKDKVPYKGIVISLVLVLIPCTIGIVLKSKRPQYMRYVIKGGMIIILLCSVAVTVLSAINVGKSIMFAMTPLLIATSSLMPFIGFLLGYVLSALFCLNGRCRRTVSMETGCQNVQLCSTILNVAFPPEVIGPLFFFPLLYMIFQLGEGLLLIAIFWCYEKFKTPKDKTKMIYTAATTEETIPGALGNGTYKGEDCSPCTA
# Experimental: LBAT (h/m) Assay Protocol
# 20,000 cells (Human or Mouse LBAT-overexpressing cells) were seeded in 96-wells plate (Corning CLS3809) in 100 μL MEM-alpha medium (Gibco 12571-063) supplemented with 10% FBS (Gibco 10438026) containing Geneticin (Gibco 10131-027) (1 mg/mL) and incubated at 37° C. in 5% CO2 for 24 hours. After incubation, media was decanted from the wells and cells were washed two times with 300 μL of basal MEM-alpha medium (FBS-free). After decanting basal MEM-alpha medium each time, plates were tapped against paper towel to ensure maximum removal of residual media. For human LBAT, incubation mix was prepared by adding test inhibitor dilutions (3-fold serial dilution in DMSO (Sigma D2650), 10 points) in MEM-alpha (without FBS) containing 0.3 μM 3H-taurocholic acid (ARC ART-1368) and 7.5 μM cold taurocholic acid (Sigma T4009) (maintaining 0.2% final DMSO concentration). For mouse LBAT, incubation mix was prepared by adding test inhibitor dilutions (3-fold serial dilution in DMSO, 10 points) in MEM-alpha (without FBS) containing 0.3 μM 3H-taurocholic acid and 25 μM cold taurocholic acid maintaining 0.2% final DMSO concentration).
# 50 μL of incubation mix containing test inhibitors was then added to the wells (in duplicate) and the plates were incubated for 20 minutes in a CO2 incubator at 37° C. After incubation, the reaction was stopped by keeping the plates on ice water mix for 2-3 minutes and then the incubation mix was aspirated completely from the wells. The wells were washed two times with 250 μL of chilled unlabelled 1 mM taurocholic acid dissolved in HEPES (Gibco 15630080)-buffered (10 mM) HBSS (Gibco 14175079) (pH 7.4). The plates were tapped against a paper towel after every wash to ensure maximum removal of blocking buffer.
# (§1) 100 μL of MicroScint-20 (PerkinElmer 6013621) was added to the wells and kept overnight at room temperature before reading the plates in TopCount NXT™ Microplate Scintillation and Luminescence Counter from PerkinElmer under 3H Test protocol (set at 120 seconds reading time per well, with normal plate orientation).
# (§2) Preparation of Test Compound Dilutions
# (§3) All test compounds were provided in powder form at room temperature. 10 mM DMSO stocks of the test compounds were prepared, aliquoted and stored at −20° C. From the 10 mM DMSO stock of the compounds, a 3-fold serial dilution in DMSO was prepared to get a total of 10 dilutions of the test compounds. 0.5 μL of this dilution in DMSO was added to 250 μL of FBS-free basal media containing 3H-taurocholic acid and cold taurocholic acid to prepare the incubation mixture.
# HepaRG cells = assay: HepaRG-based assay: 3H-taurocholic acid uptake in differentiated HepaRG cells; conditions: Homo sapiens, HepaRG, 0.3 μM 3H-taurocholic acid and 7.5 μM cold taurocholic acid, 30 minutes
# Experimental: HepaRG-Based Assay Protocol
# A cryopreserved vial of differentiated HepaRG cells (Biopredic International HPR116080) was thawed in HepaRG Thawing/Plating/General Purpose Medium (Biopredic International ADD670C) supplemented with 200 mM Glutamax (Gibco 35050061) following the protocol provided by Biopredic International. 70,000 cells per well were seeded in 96-wells plate (Corning CLS3809) in 100 μL of HepaRG Thawing/Plating/General Purpose Medium supplemented with 200 mM Glutamax and incubated at 37° C. in 5% CO2 for 24 hours. Post incubation, the seeding media was replaced by HepaRG Maintenance/Metabolism Medium (Biopredic International ADD620C) and incubated for 6 days, with fresh HepaRG Maintenance/Metabolism Medium replenishment every 48 hours. After 7 days incubation post seeding, incubation media was decanted from the wells and cells were washed two times with 250 μL of William's E Basal Media (Gibco 12551032). After decanting William's E Basal Media each time, plates were tapped against paper towel to ensure maximum removal of residual media.
# Incubation mix was prepared by adding test inhibitor dilutions (3-fold serial dilution in DMSO (Sigma D2650)) in William's E media (basal) containing 0.3 μM 3H-taurocholic acid (ARC ART-1368) and 7.5 μM cold taurocholic acid (Sigma T4009) (maintaining 0.2% final DMSO concentration). 50 μl of incubation mix containing test inhibitors was then added to the wells (in duplicate) and the plates were incubated for 30 minutes in 5% CO2 incubator at 37° C. After incubation, the reaction was stopped by keeping the plates on ice water mix for 2-3 minutes and then the incubation mix was aspirated completely from the wells. The wells were washed two times with 250 μL of chilled unlabelled 1 mM taurocholic acid dissolved in HEPES (Gibco 15630080)-buffered (10 mM) HBSS (Gibco 14175079) (pH 7.4). The plates were tapped against a paper towel after every wash to ensure maximum removal of blocking buffer.
# as §1, §2, §3
# Human ASBT = target: T2, Human ASBT (Homo sapiens, UniProt Q12908); assay: ASBT (h/m) assay: 3H-taurocholic acid uptake in human ASBT-overexpressing cells; conditions: 0.25 μM 3H-taurocholic acid and 5 μM cold taurocholic acid, 20 minutes, read-out: hASBT IC50
# T2 construct: expressed in transfected cells; kept under Puromycin selection
# T2 sequence (Q12908 1-348): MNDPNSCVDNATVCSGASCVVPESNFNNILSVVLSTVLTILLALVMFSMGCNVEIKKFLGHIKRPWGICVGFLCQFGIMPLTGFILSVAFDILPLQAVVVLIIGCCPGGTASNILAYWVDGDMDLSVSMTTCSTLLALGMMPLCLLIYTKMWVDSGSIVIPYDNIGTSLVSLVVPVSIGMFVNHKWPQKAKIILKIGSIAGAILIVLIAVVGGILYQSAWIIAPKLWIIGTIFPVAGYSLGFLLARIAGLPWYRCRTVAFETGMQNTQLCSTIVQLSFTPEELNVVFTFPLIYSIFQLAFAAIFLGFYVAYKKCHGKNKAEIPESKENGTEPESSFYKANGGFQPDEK
# Experimental: ASBT (h/m) Assay Protocol
# 10,000 cells (Human or Mouse ASBT-overexpressing cells) were seeded in 96-wells plate (Corning CLS3809) in 200 μL MEM-alpha medium (Gibco 12571-063) supplemented with 10% FBS (Gibco 10438026) containing Puromycin (Gibco A1113803) (10 μg/mL) and incubated at 37° C. in 5% CO2 for 48 hours. After incubation, media was decanted from the wells and cells were washed two times with 300 μL of basal MEM-alpha medium (FBS-free). After decanting basal MEM-alpha medium each time, plates were tapped against paper towel to ensure maximum removal of residual media. Test inhibitor dilutions (highest test concentration being 10 μM, 3-fold serial dilution, 10 points) prepared in DMSO (Sigma D2650) were added in incubation mix (maintaining 0.2% final DMSO concentration) containing 0.25 μM 3H-taurocholic acid (ARC ART-1368) and 5 μM of cold taurocholic acid (Sigma T4009). 50 μL of incubation mix containing test inhibitors was then added to the wells (in duplicate) and the plates were incubated for 20 minutes in a CO2 incubator at 37° C. After incubation, the reaction was stopped by keeping the plates on ice water mix for 2-3 minutes and then the incubation mix was aspirated completely from the wells. The wells were washed two times with 250 μL of chilled unlabelled 1 mM taurocholic acid dissolved in HEPES (Gibco 15630080)-buffered (10 mM) HBSS (Gibco 14175079) (pH 7.4). The plates were tapped against a paper towel after every wash to ensure maximum removal of blocking buffer.
# 100 μL of MicroScint-20 (PerkinElmer 6013621) was added to the wells and kept overnight at room temperature before reading the plates in TopCount NXT™ Microplate Scintillation and Luminescence Counter from PerkinElmer under 3H Test protocol (set at 120 seconds reading time per well).
# as §2, §3
IC50 (Human LBAT) [nM],IC50 (Human ASBT) [nM],SMILES,IC50 (HepaRG cells) [nM]
49,,"CCCC[C@]1(CC)CN(c2ccccc2)c2cc(SC)c(O/C=C/C(=O)O)cc2S(=O)(=O)N1C (single isomer, unassigned) [Example 90]",1400
343,,"CCCCC1(CCCC)CN(c2ccc(NCc3ccccc3)cc2)c2cc(SC)c(O/C=C/C(=O)O)cc2S(=O)(=O)C1 [Example 22, (E)-3-((5-(4-(benzylamino)phenyl)-3,3-dibutyl-7-(methylthio)-1,1-dioxido-2,3,4,5-tetrahydro-1,5-benzothiazepin-8-yl)oxy)acrylic Acid]",2140
349,148,"CCCCC1(CCCC)CN(c2ccccc2)c2cc(Br)c(O/C=C/C(=O)O)cc2S(=O)(=O)N1 [Example 75, (E)-3-((7-bromo-3,3-dibutyl-1,1-dioxido-5-phenyl-2,3,4,5-tetrahydro-1,2,5-benzothiadiazepin-8-yl)oxy)acrylic Acid]",
828,7.5,"CCCCC1(CC)CN(c2ccccc2)c2cc(N(C)C)c(O/C=C/C(=O)O)cc2S(=O)(=O)C1 (stereo not drawn) [Example 80, (E)-3-((3-butyl-7-(dimethylamino)-3-ethyl-1,1-dioxido-5-phenyl-2,3,4,5-tetrahydro-1,5-benzothiazepin-8-yl)oxy)acrylic Acid]",
210,771,"CCCCC1(CCCC)CN(c2ccccc2)c2cc(F)c(O/C=C/C(=O)O)cc2S(=O)(=O)C1 [Example 81, (E)-3-((3,3-dibutyl-7-fluoro-1,1-dioxido-5-phenyl-2,3,4,5-tetrahydro-1,5-benzothiazepin-8-yl)oxy)acrylic Acid]",
270,873,"CCCCC1(CCCC)CN(c2ccccc2)c2cc(C#N)c(O/C=C/C(=O)O)cc2S(=O)(=O)C1 [Example 82, (E)-3-((3,3-dibutyl-7-cyano-1,1-dioxido-5-phenyl-2,3,4,5-tetrahydro-1,5-benzothiazepin-8-yl)oxy)acrylic Acid]",
4920,18,"CCCCC1(CCCC)CN(c2ccccc2)c2cc(SC)c(O/C(C)=C/C(=O)O)cc2S(=O)(=O)N1 [Example 83, (E)-3-((3,3-dibutyl-7-(methylthio)-1,1-dioxido-5-phenyl-2,3,4,5-tetrahydro-1,2,5-benzothiadiazepin-8-yl)oxy)but-2-enoic Acid]",
96,42,"CCCCC1(CCCC)CN(c2ccc(Br)cc2)c2cc(SC)c(O/C=C(\F)C(=O)O)cc2S(=O)(=O)C1 [Example 94, (Z)-3-((5-(4-bromophenyl)-3,3-dibutyl-7-(methylthio)-1,1-dioxido-2,3,4,5-tetrahydro-1,5-benzothiazepin-8-yl)oxy)-2-fluoroacrylic Acid]",
341,9,"CCCCC1(CCCC)CN(c2ccccc2)c2cc(N(C)C)c(O/C=C(\F)C(=O)O)cc2S(=O)(=O)N1 [Example 97, (Z)-3-((3,3-dibutyl-7-(dimethylamino)-1,1-dioxido-5-phenyl-2,3,4,5-tetrahydro-1,2,5-benzothiadiazepin-8-yl)oxy)-2-fluoroacrylic Acid]",
290,3330,"CCCCC1(CCCC)CN(c2ccc(C(=O)N(C)C)cc2)c2cc(SC)c(O/C=C(\F)C(=O)O)cc2S(=O)(=O)C1 [Example 104, (Z)-3-((3,3-dibutyl-5-(4-(dimethylcarbamoyl)phenyl)-7-(methylthio)-1,1-dioxido-2,3,4,5-tetrahydro-1,5-benzothiazepin-8-yl)oxy)-2-fluoroacrylic Acid]",

SMILES,IC50 (Human LBAT) [nM],IC50 (Human ASBT) [nM],IC50 (HepaRG cells) [nM]
"CCCCC1(CC)CN(c2ccc(NC(=O)OC(C)(C)C)cc2)c2cc(Br)c(O/C=C/C(=O)O)cc2S(=O)(=O)C1 (stereo not drawn) [Example 23, (E)-3-((7-bromo-5-(4-((tert-butoxycarbonyl)amino)phenyl)-3-butyl-3-ethyl-1,1-dioxido-2,3,4,5-tetrahydro-1,5-benzothiazepin-8-yl)oxy)acrylic Acid]",100,,1200
"CCCCOC(=O)Nc1ccc(N2CC(CCCC)(CCCC)CS(=O)(=O)c3cc(O/C=C/C(=O)O)c(SC)cc32)cc1 [Example 29, (E)-3-((5-(4-((butoxycarbonyl)amino)phenyl)-3,3-dibutyl-7-(methylthio)-1,1-dioxido-2,3,4,5-tetrahydro-1,5-benzothiazepin-8-yl)oxy)acrylic Acid]",205,,666
